Patent publication US7226923B2, “Phthalazinone derivatives” (Hoffman-La Roche Inc., priority 2004, dated 2007)

molecular target: T1, Aurora A (Homo sapiens, UniProt O14965); experiment: IC50 determination for inhibitors of Aurora A (96 MTP-ELISA); assay type: biochemical; details: His4-tagged full-length Aurora A 250 ng/ml, PKB-GSK2 200 nM, ATP 4 μM, 90 min at room temperature, read-out: IC50 Aurora A kinase inhibition
T1 construct: C-terminally Histidine4 (His4)-tagged Aurora A full-length protein
T1 sequence (O14965 1-403): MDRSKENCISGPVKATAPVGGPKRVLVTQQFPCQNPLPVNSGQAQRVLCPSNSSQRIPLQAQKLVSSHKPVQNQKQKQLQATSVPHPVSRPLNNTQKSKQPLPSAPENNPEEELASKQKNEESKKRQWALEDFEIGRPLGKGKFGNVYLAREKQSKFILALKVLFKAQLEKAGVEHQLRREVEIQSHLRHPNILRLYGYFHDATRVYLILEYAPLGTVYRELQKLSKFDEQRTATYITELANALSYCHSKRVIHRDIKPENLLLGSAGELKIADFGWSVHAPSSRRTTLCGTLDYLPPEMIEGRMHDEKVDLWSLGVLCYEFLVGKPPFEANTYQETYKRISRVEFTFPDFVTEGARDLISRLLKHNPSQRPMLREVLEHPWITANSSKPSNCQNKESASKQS
Method: IC50 Determination for Inhibitors of Aurora A
• Aurora A is a serine threonine kinase involved in spindle assembly and chromosome segregation.
The assay is a typically ELISA-type assay where biotinylated substrate (PKB-GSK2) is phosphorylated. Phosphorylation is detected by peroxidase (POD) labelled polyclonal antibody (PAK<M-Ig>S-IgG-POD) and phosphopeptide monoclonal antibody (Mab) (MAK<P-GSK>M-27E5-IgG). The assay is validated for IC50-determination.
Method • This assay is performed in 96-well format for IC50 determination with 5 samples (each with 8 concentrations by twofold testing), 100 μl incubation volume and the following plate layout: […]

| IC50 [nM] | Compound |
| --- | --- |
| 1 to 100 | COc1ccc(-n2nc(Nc3cc(C)[nH]n3)c3ccccc3c2=O)cc1 [Example A-9, 2-(4-Methoxy-phenyl)-4-(5-methyl-1H-pyrazol-3-ylamino)-2H-phthalazin-1-one] |
| 1 to 100 | Cc1cc(Nc2nn(-c3cccc(C(C)(C)C)c3)c(=O)c3ccccc23)n[nH]1 [Example X-2, 2-(3-tert-Butyl-phenyl)-4-(5-methyl-1H-pyrazol-3-ylamino)-2H-phthalazin-1-one] |
| 1 to 100 | Cc1cc(Nc2nn(C(C)C)c(=O)c3cc(S(C)(=O)=O)ccc23)n[nH]1 [Example H-2, 2-Isopropyl-7-methanesulfonyl-4-(5-methyl-1H-pyrazol-3-ylamino)-2H-phthalazin-1-one] |
| 1 to 100 | CC(=O)N(C)c1ccc2c(Nc3cc(C)[nH]n3)nn(C(C)C)c(=O)c2c1 [Example I-5, N-[3-Isopropyl-1-(5-methyl-1H-pyrazol-3-ylamino)-4-oxo-3,4-dihydro-phthalazin-6-yl]-N-methyl-acetamide] |
| 1 to 100 | Cc1cc(Nc2nn(-c3ccc4ccccc4c3)c(=O)c3ccccc23)n[nH]1 [Example R-3, 4-(5-Methyl-1H-pyrazol-3-ylamino)-2-naphthalen-2-yl-2H-phthalazin-1-one] |
| 100 to 1000 | Cc1cc(Nc2nn(-c3ccc(C(F)(F)F)cc3Cl)c(=O)c3ccccc23)n[nH]1 [Example W-1, 2-(2-Chloro-4-trifluoromethyl-phenyl)-4-(5-methyl-1H-pyrazol-3-ylamino)-2H-phthalazin-1-one] |
| 100 to 1000 | Cc1cc(Nc2nn(C(C)C)c(=O)c3ccc(N(C)C)cc23)n[nH]1 [Example F-7, 2-Isopropyl-4-(5-methyl-1H-pyrazol-3-ylamino)-6-dimethylamino-2H-phthalazin-1-one] |
| 1 to 100 | Cc1cc(Nc2nn(Cc3cccnc3)c(=O)c3ccccc23)[nH]n1 [Example A-18, 4-(5-Methyl-2H-pyrazol-3-ylamino)-2-pyridin-3-ylmethyl-2H-phthalazin-1-one] |
| 1 to 100 | COc1ccc(C(=O)Cn2nc(Nc3cc(C)[nH]n3)c3ccccc3c2=O)cc1 [Example E-4, 2-[2-(4-Methoxy-phenyl)-2-oxo-ethyl]-4-(5-methyl-1H-pyrazol-3-ylamino)-2H-phthalazin-1-one] |
| 1 to 100 | Cc1cc(Nc2nn(Cc3ccc(S(C)(=O)=O)cc3)c(=O)c3ccccc23)[nH]n1 [Example A-14, 2-(4-Methanesulfonyl-benzyl)-4-(5-methyl-2H-pyrazol-3-ylamino)-2H-phthalazin-1-one] |
| 1 to 100 | Cc1cc(Nc2nn(C(C)C)c(=O)c3cc(CN4CCN(C)CC4)ccc23)n[nH]1 [Example L-1, 2-Isopropyl-7-(4-methyl-piperazin-1-ylmethyl)-4-(5-methyl-1H-pyrazol-3-ylamino)-2H-phthalazin-1-one] |
| 1 to 100 | Cc1cc(Nc2nn(-c3ccc(F)cc3)c(=O)c3ccccc23)n[nH]1 [Example A-7, 2-(4-Fluoro-phenyl)-4-(5-methyl-1H-pyrazol-3-ylamino)-2H-phthalazin-1-one] |
| 555 | CC(=O)Nc1ccc(Cn2nc(Nc3cc[nH]n3)c3ccccc3c2=O)cc1 [Example D-2, N-{4-[1-Oxo-4-(1H-pyrazol-3-ylamino)-1H-phthalazin-2-ylmethyl]-phenyl}-acetamide] |
| 1 to 100 | COc1ccc2c(Nc3cc(C)[nH]n3)nn(Cc3ccccc3)c(=O)c2c1 [Example G-8, 2-Benzyl-7-methoxy-4-(5-methyl-1H-pyrazol-3-ylamino)-2H-phthalazin-1-one] |
| 1 to 100 | Cc1cc(Nc2nn(C(C)C)c(=O)c3cc(N(C)C)ccc23)n[nH]1 [Example F-6, 2-Isopropyl-4-(5-methyl-1H-pyrazol-3-ylamino)-7-dimethylamino-2H-phthalazin-1-one] |
| 1 to 100 | CNc1ccc2c(Nc3cc(C)[nH]n3)nn(C(C)C)c(=O)c2c1 [Example I-12, 2-Isopropyl-7-methylamino-4-(5-methyl-1H-pyrazol-3-ylamino)-2H-phthalazin-1-one] |
| 100 to 1000 | Cc1ccc(-n2nc(Nc3cc[nH]n3)c3ccccc3c2=O)cc1 [Example A-10, 4-(1H-Pyrazol-3-ylamino)-2-p-tolyl-2H-phthalazin-1-one] |
| 1 to 100 | COc1ccc(Cn2nc(Nc3cc(C)[nH]n3)c3ccccc3c2=O)cc1 [Example A-11, 2-(4-Methoxy-benzyl)-4-(5-methyl-1H-pyrazol-3-ylamino)-2H-phthalazin-1-one] |
| 1 to 100 | Cc1cc(Nc2nn(C(C)C)c(=O)c3cc(C(=O)O)ccc23)n[nH]1 [Example M-1, 3-Isopropyl-1-(5-methyl-1H-pyrazol-3-ylamino)-4-oxo-3,4-dihydro-phthalazine-6-carboxylic acid] |
| 1 to 100 | CCOC(=O)Nc1ccc(-n2nc(Nc3cc(C)[nH]n3)c3ccccc3c2=O)cc1 [Example Y-2, {4-[4-(5-Methyl-1H-pyrazol-3-ylamino)-1-oxo-1H-phthalazin-2-yl]-phenyl}-carbamic acid ethyl ester] |
| 1 to 100 | Cc1cc(Nc2nn(Cc3cccc(C(=O)O)c3)c(=O)c3ccccc23)n[nH]1 [Example A-24, 3-[4-(5-Methyl-1H-pyrazol-3-ylamino)-1-oxo-1H-phthalazin-2-ylmethyl]-benzoic acid] |
| 1 to 100 | Cc1cc(Nc2nn(-c3ccc(NS(C)(=O)=O)cc3)c(=O)c3ccccc23)n[nH]1 [Example T-5, N-{4-[4-(5-Methyl-1H-pyrazol-3-ylamino)-1-oxo-1H-phthalazin-2-yl]-phenyl}-methanesulfonamide] |
| 100 to 1000 | CC(=O)Nc1ccc(-n2nc(Nc3cc(C)[nH]n3)c3ccccc3c2=O)cc1 [Example T-1, N-{4-[4-(5-Methyl-1H-pyrazol-3-ylamino)-1-oxo-1H-phthalazin-2-yl]-phenyl}-acetamide] |
| 1 to 100 | Cc1cc(Nc2nn(C(C)C)c(=O)c3cc(NCCN4CCOCC4)ccc23)n[nH]1 [Example I-11, 2-Isopropyl-4-(5-methyl-1H-pyrazol-3-ylamino)-7-(2-morpholin-4-yl-ethylamino)-2H-phthalazin-1-one] |
| 100 to 1000 | COCC(C)n1nc(Nc2cc(C)n[nH]2)c2ccccc2c1=O (stereo not drawn) [Example O-2, 2-(2-Methoxy-1-methyl-ethyl)-4-(5-methyl-2H-pyrazol-3-ylamino)-2H-phthalazin-1-one] |
| 1 to 100 | Cc1cc(Nc2nn(C(C)C)c(=O)c3cc(N(C)Cc4ccncc4)ccc23)n[nH]1 [Example I-2, 2-Isopropyl-4-(5-methyl-1H-pyrazol-3-ylamino)-7-(methyl-pyridin-4-ylmethyl-amino)-2H-phthalazin-1-one] |
| 1 to 100 | CONC(=O)c1ccc2c(Nc3cc(C)[nH]n3)nn(C(C)C)c(=O)c2c1 [Example M-4, 3-Isopropyl-1-(5-methyl-1H-pyrazol-3-ylamino)-4-oxo-3,4-dihydro-phthalazine-6-carboxylic acid methoxy-amide] |
| 1 to 100 | Cc1cc(Nc2nn(C(C)C)c(=O)c3ccccc23)n[nH]1 [Example A-23, 2-Isopropyl-4-(5-methyl-1H-pyrazol-3-ylamino)-2H-phthalazin-1-one] |
| 1 to 100 | Cc1cc(Nc2nn(-c3ccc(-c4ccccc4C)cc3)c(=O)c3ccccc23)n[nH]1 [Example Q-2, 2-(2′-Methyl-biphenyl-4-yl)-4-(5-methyl-1H-pyrazol-3-ylamino)-2H-phthalazin-1-one] |

system: HCT 116 cells; experiment: CellTiter-Glo assay in HCT 116 cells; assay type: cell-based, human; details: Homo sapiens, HCT-116, 120 h, 5 days incubation, 30 μM to 0.0015 μM
From the text: CellTiter-Glo™ Assay in HCT 116 Cells
The CellTiter-Glo™ Luminescent Cell Viability Assay (Promega) is a homogeneous method of determining the number of viable cells in culture based on quantitation of the ATP present, which signals the presence of metabolically active cells.
HCT 116 cells (human colon carcinoma, ATCC-No. CCl-247) were cultivated in RPMI 1640 medium with GlutaMAX™ I (Invitrogen, Cat-No. 61870-010), 2.5% Fetal Calf Serum (FCS, Sigma Cat-No. F4135 (FBS)); 100 Units/ml penicillin/100 μg/ml streptomycin (=Pen/Strep from Invitrogen Cat. No. 15140). For the assay the cells were seeded in 384 well plates, 1000 cells per well, in the same medium. The next day the test compounds were added in various concentrations ranging from 30 μM to 0.0015 μM (10 concentrations, 1:3 diluted). After 5 days the CellTiter-Glo™ assay was done according to the instructions of the manufacturer (CellTiter-Glo™ Luminescent Cell Viability Assay, from Promega). In brief: the cell-plate was equilibrated to room temperature for approximately 30 minutes and than the CellTiter-Glo™ reagent was added. The contents were carefully mixed for 15 minutes to induce cell lysis. After 45 minutes the luminescent signal was measured in Victor 2, (scanning multiwell spectrophotometer, Wallac).
1st. Day: • Medium: RPMI 1640 with GlutaMAX™ I (Invitrogen, Cat-Nr. 61870), 5% FCS (Sigma Cat.-No. F4135), Pen/Strep (Invitrogen, Cat No. 15140). • HCT116 (ATCC-No. CCl-247): 1000 cells in 60 μl per well of 384 well plate (Greiner 781098, μClear-plate white) • After seeding incubate plates 24 h at 37° C., 5% CO2
2nd. Day: Induction (Treatment with Compounds, 10 Concentrations):
In order to achieve a final concentration of 30 μM as highest concentration 3.5 μl of 10 mM compound stock solution were added directly to 163 μl media. Then step e) of the dilution procedure described below, was followed.

| IC50 [nM] | Compound |
| --- | --- |
| 100 to 10000 | Cc1cc(Nc2nn(C(C)C)c(=O)c3cc(N(C)S(C)(=O)=O)ccc23)n[nH]1 [Example I-10, N-[3-Isopropyl-1-(5-methyl-1H-pyrazol-3-ylamino)-4-oxo-3,4-dihydro-phthalazin-6-yl]-N-methyl-methanesulfonamide] |
